# According to patent US20130017600A1, “ISOLATION AND/OR PRESERVATION OF DENDRITIC CELLS FOR PROSTATE CANCER IMMUNOTHERAPY” (NORTHWEST BIOTHERAPEUTICS, INC., priority 1995, published 2013):
# Assays:
# [1] = system: T cells (PBMC) obtained from prostate cancer patients; assay: T cell proliferation assay (3H-TdR incorporation) with PSMA peptide alone; format: cell-based, human
# Protocol: One hundred thousand previously frozen T cells (designated “PBMC”) obtained from a prostate cancer patient were cultured in the presence or absence of 20
# PSMA peptide in complete medium containing 10% heat-inactivated human serum and 1 unit/ml IL2. One μCi/well ^3H-Thymidine was added on day 6 and cultures were harvested 18 hours later. ^3H-TdR incorporation was counted in a liquid scintillation counter. Each experiment was done in 4 replicates.
# One hundred thousand T cells, i.e. PBMC obtained from HLA-A2(+) or HLA-A2(−) prostate cancer patients were cultured in the presence or absence (i.e. “medium control”) of 20 μg PSM-P2 peptide for five (5) days in a humidified, 37° C., 5% CO2 incubator. On day 6, 1 μCi ^3H-Thymidine was added to each well. After another 24 h incubation, cells were harvested and the ^3H-TdR incorporated was counted in a liquid scintillation counter. Each experiment was done in triplicate. Results are presented in FIG. 10 as average cpm and standard error of the mean.
# [2] = system: T cells proliferated as a result of the PSMA peptide; assay: Flow cytometric analysis (CD4/CD8) of T cells proliferated as a result of the PSMA peptide; format: cell-based, human; details: expanded 5 days with 2 μM peptide and 1 unit/ml IL2; FIG. 9
# Protocol: The T cells proliferated as a result of the PSMA peptide were expanded in culture for 5 days, in complete medium containing 2 μM PSMA peptide and 1 unit/ml Il2 for 5 days prior to harvest. One million cells were incubated for 30 minutes on ice with anti-CD4, anti-CD8 antibodies or medium alone, followed by another 30 minute incubation with fluorescein isothiocyanate labelled-2° antibody. Fluorescence-bound was analyzed in a FACScan (Becton Dickinson, San Jose, Calif.) flow cytometer as described above. The percent CD4+ and CD8+ cells were calculated. Results are illustrated in FIG. 9.
# [3] = system: late stage prostate cancer patients; assay: Phase 1 clinical trial: T cell proliferation pre- and post-infusion (stimulation ratio); format: in vivo, human; details: 7 days after first infusion; all patients of the group; FIG. 11
# Protocol: A phase 1 clinical trial has been established using five treatment groups of late stage prostate cancer patients. The groups were treated as follows: Group I, received peptide PSM-P1 having amino acid sequence LLHETDSAV (SEQ. ID. NO 1) only at 0.2, 2.0 and 20.0 μg; Group II, peptide PSM-P2 having amino acid sequence ALFDIESKV (SEQ. ID. NO. 2) only at 0.2, 2.0 and 20.0 μg; Group III, 1×10^6 (#3-4) or 5×10^6 (#1, 2) autologous dendritic cells only; Group IV, up to 2×10^7 autologous dendritic cells loaded with PSM-P1 (SEQ. ID. NO. 1); and Group V, up to 2×10^7 autologous DC's loaded with PSM-P2 (SEQ. ID. NO. 2). All treatments were delivered by infusion. Patients were monitored 7 days post-infusion and their immune function was analyzed by assessing T cell proliferation pre- and post-infusion using ^3H-TdR incorporation as described above in Section 9.
# [4] = system: previously cryopreserved autologous T cells (PBMC) of a prostate cancer patient; assay: T cell proliferation assay with extended life span (EBV-transformed) dendritic cells; format: cell-based, human; details: antigen presented by extended life span DC's; TT 500 ng/ml or LNCaP lysate equivalent of 10^4 cells/ml; FIG. 7
# [5] = system: previously frozen T cells (PBMC) of a prostate cancer patient; assay: T cell proliferation assay with previously cryopreserved autologous dendritic cells and purified PSMA; format: cell-based, human; details: previously cryopreserved DC's plus 5 μl/well purified PSMA; vs antigen alone or DC's alone; FIG. 6
# Protocol: Dendritic cells were isolated from PBMC of a prostate cancer patient as described above in Section 6 and cultured, as described above, in Section 6, for 7 days in the presence of 500 units/ml GM-CSF and IL-4.
# On day 7, the isolated DC's were harvested and cryopreserved using 90% fetal calf serum and 10% dimethylsulfoxide. The cryopreserved DC's were stored frozen for a period of time, thawed in a 37° C. water bath and transferred to a 15 ml polypropylene tube and centrifuged at 1200 rpm for 5 min. The thawed DC's were then resuspended in medium containing 10% heat-inactivated human serum and counted.
# One hundred thousand previously frozen T cells obtained from peripheral blood of the same prostate cancer patient (PBMC) were cultured in the presence or absence of 10^4 DC's together with 5 μl/well purified PSMA (see Section 6.1.4 above) in a total volume of 200 μl medium containing 10% heat-inactivated human serum and 1 unit/ml IL-2. One μCi/well ^3H-Thymidine was added on day 6 and cultures were harvested 18 hours later. ^3H-TdR incorporation was counted in a liquid scintillation counter. Each experiment was done in 4 replicates. The average cpm and standard deviation are shown in the graph.
substance,measurement,setting,value
"ALFDIESKV [PSM-P2, peptide corresponding to amino acid residues 711-719 of PSMA]","T cell proliferation (3H-TdR incorporation), HLA-A2(−) T cells","[1]; 20 μg peptide, 5 days, FIG. 10",less dramatic enhanced T cell proliferation
same,"T cell proliferation (3H-TdR incorporation), HLA-A2(+) T cells","[1]; 20 μg peptide, 5 days, vs medium control, FIG. 10",greatly enhanced cell proliferation
"LLHETDSAV [PSM-P1, peptide corresponding to amino acid residues 4-12 of PSMA]",CTL's share of the T cells stimulated by the peptide,[2],about 41%
same,T cell proliferation (3H-TdR incorporation),"[1]; PBMC of a prostate cancer patient with peptide vs absence of peptide, FIG. 8",greatly enhanced T cell proliferation
same,increase in T cell proliferation post- vs pre-infusion,[3],did not demonstrate any increase in T cell proliferation
"PSMA: purified prostate specific membrane antigen, immunoprecipitated from human semen with monoclonal antibody 7E11-C5",3HTdR incorporation (T cell proliferation),[4],significantly increased
same,3HTdR incorporation (T cell proliferation),[5],highly significant increase
